# Data: publication PMC3753754, “Andrographis paniculata Extract and Andrographolide Modulate the Hepatic Drug Metabolism System and Plasma Tolbutamide Concentrations in Rats” (Evidence-based Complementary and Alternative Medicine : eCAM, 2013)
# How the values were obtained:
# [1] = Pharmacokinetics of tolbutamide in control, APE-pretreated and andrographolide-pretreated rats; format: in vivo, Sprague-Dawley rats; conditions: male, Sprague-Dawley, rat, plasma, control rats (methyl cellulose vehicle for 5 days), tolbutamide 20 mg/kg oral
# Experimental: Seven-week-old male Sprague-Dawley rats cannulated in the jugular vein were purchased from the Bio LASCO Experimental Animal Center (Taipei, Taiwan). The animals were fed a standard rat diet and were randomly assigned into control, APE-treated, and andrographolide-treated groups (n = 5). Rats were housed in plastic cages in a room kept at 23 ± 1°C and 60 ± 5% relative humidity with a 12-hour light and dark cycle. Food and drinking water were available ad libitum. Control rats were orally administered methyl cellulose. […] After the 5th daily dose, rats were deprived of food overnight. On day 6, a 20 mg/kg oral dose of tolbutamide, as a solution in Cremophor EL (polyoxyl 35 hydrogenated castor oil, Sigma)/ethanol/water (30/10/60, v/v/v), was administered to each rat. After the administration of tolbutamide, serial blood samples were collected up to 12 h after dosing from each rat. The animals were then killed by exsanguination, and the livers were collected.
# Tolbutamide was prepared in a solution of Cremophor EL/ethanol/water (30/10/60, v/v/v). After administration, blood samples (~200 μL) were collected from the tail vein of each rat at 0.25, 0.5, 1, 2, 4, 8, and 12 h after dosing. Plasma was separated from blood by centrifugation (4000 ×g for 20 min at 4°C). An aliquot of 50 μL plasma was mixed with 100 μL acetonitrile and then centrifuged at 10,000 ×g for 15 min at 4°C. The supernatant was used to determine the concentration of tolbutamide by LC/MS. Calibration standards of tolbutamide were prepared by serial dilution of a tolbutamide stock solution with blank plasma, yielding final concentrations of tolbutamide ranging from 1 to 300 μg/mL of plasma.
# The HPLC system consisted of an Agilent 1100 series LC System (Palo Alto, CA) and an Agilent Zorbax Eclipse XDB-C8 column (3 μm, 3.0 mm × 150 mm), interfaced to an Agilent MSD mass spectrometer equipped with an electrospray ionization source. Column temperature was set at 25°C. The initial mobile phase composition was 30% acetonitrile containing 10 mM ammonium acetate (solvent A) and 70% of 0.1% formic acid (solvent B). The following gradient system was used: 30% A to 50% A (0-1 min), 50% A to 98% A (1–3 min), 98% A (3–9 min), 98% A to 30% A (9-10 min), and 30% A (10–15 min). The flow rate was 0.5 mL/min. Sample injection volume was 10 μL. The MS data acquisition was via selected ion monitoring. The positive ion of the testing compound was selected, and the peak size was measured. The area under the plasma tolbutamide concentration versus time curve (AUC) was calculated by using the trapezoidal method.
# [2] = Plasma tolbutamide concentration in high-fat diet-induced obese mice; format: in vivo, C57BL/6 mice; conditions: C57BL/6, mouse, 2 h after dosing 20 mg/kg oral tolbutamide, control obese mice (methyl cellulose vehicle)
# Experimental: Eleven-month-old high-fat diet-fed (45% of energy from fat; Research Diet Inc., New Brunswick, NJ) C57BL/6 mice were obtained from the National Health Research Institute (Miaoli, Taiwan). Control mice were orally administered 0.5% methyl cellulose (10 mL/kg). […] After the 5th daily dose, the mice were deprived of food overnight. On day 6, a 20 mg/kg oral dose of tolbutamide, as a solution in Cremophor EL/ethanol/water (30/10/60, v/v/v), was administered to each mouse. Thirty minutes later, a 1 g/kg dose of glucose, as a solution in water, was administered orally according to the method described by Zong et al.. Serial blood samples were collected up to 8 h after the glucose dose from each mouse. The animals were then killed by exsanguination and the livers collected.
# Tolbutamide was prepared in a solution of Cremophor EL/ethanol/water (30/10/60, v/v/v). […]
# The HPLC system consisted of an Agilent 1100 series LC System (Palo Alto, CA) and an Agilent Zorbax Eclipse XDB-C8 column (3 μm, 3.0 mm × 150 mm), interfaced to an Agilent MSD mass spectrometer equipped with an electrospray ionization source. […] The positive ion of the testing compound was selected, and the peak size was measured. The area under the plasma tolbutamide concentration versus time curve (AUC) was calculated by using the trapezoidal method.
smiles,measurement,setting,value
CCCCNC(=O)NS(=O)(=O)c1ccc(C)cc1 [tolbutamide],MRT,[1],7.9 ± 1.6 h
same,AUC(0-t),[1]; read-out: AUC0–12 h of plasma tolbutamide,1390 ± 262 µg·h/mL
same,Cmax,[1]; read-out: C max of tolbutamide,151 ± 21 µg/mL
same,Tmax,[1]; read-out: T max of tolbutamide,1.6 ± 0.5 h
same,concentration at 2 h,[2],124 ± 32 µg/mL
